System: individuals with hypertension
Assay: Blood pressure and heart rate response to metoprolol by β1AR codon 389 / codon 49 genotype
Format: in vivo, human
Settings: for 24 hr SBP response (% change) / 24 hr DBP response (% change) / Daytime DBP response (% change) / Daytime SBP response (% change) / Nighttime DBP response (% change) / Nighttime SBP response (% change): at least 4 weeks
Experimental: Genetic variation (polymorphisms) in the gene encoding the beta 1-adrenergic receptor (β1AR) contribute to the variability in response to beta-blockers. There are two common, non-synonymous polymorphisms of the P AR gene and they result in either a serine (Ser) or glycine (Gly) at codon 49, and arginine (Arg) or glycine (Gly) at codon 389. The relationship between these polymorphisms and heart rate and blood pressure response to the beta-blocker metoprolol was tested in 28 individuals with hypertension.
Patients were washed out from all their antihypertensive medications for at least 2 weeks. They then underwent baseline testing which included recording of 24-hour ambulatory blood pressure data and treadmill exercise heart rate responses at 10 AM and 2 PM. Patients were started on metoprolol and titrated to a dose that produced a diastolic blood pressure DBP<90 mm Hg, or until they reached the maximum dose (200 mg twice daily). Patients were maintained on this target dose for at least 4 weeks and then underwent repeat studies, as at baseline.
Patients were also divided as responders or non-responders, with non-responders defined as those with a <10% decline in DBP, and compared allele frequencies in these groups.

[1] = Arg389Arg genotype, metoprolol titrated
[2] = Ser49Ser genotype, metoprolol titrated
[3] = codon 49 Gly carriers, metoprolol titrated
[4] = codon 389 Gly carriers, metoprolol titrated

SMILES: COCCc1ccc(OCC(O)CNC(C)C)cc1 (stereo not drawn) [metoprolol]
- 24 hr SBP response (% change) (Arg389Arg genotype, metoprolol titrated to DBP<90 mm Hg or max 200 mg twice daily, 24-hour ambulatory BP vs baseline): −10.5 ± 7.9 % change
- 24 hr DBP response (% change) [1]: −12.6 ± 7.4 % change
- Daytime DBP response (% change) [1]: −13.6 ± 7.2 % change
- Daytime SBP response (% change) [1]: −11.6 ± 8.0 % change
- Nighttime DBP response (% change) [1]: −10.6 ± 11.6 % change
- Nighttime SBP response (% change) [1]: −7.5 ± 9.5 % change
- Daytime blood pressure response (Arg389 homozygotes compared to carriers of Gly389, not nighttime): significantly greater
- 24 hr DBP response (% change) [2]: −10.7 ± 7.8 % change
- 24 hr SBP response (% change) [2]: −10.1 ± 9.1 % change
- Daytime DBP response (% change) [2]: −10.3 ± 8.2 % change
- Daytime SBP response (% change) [2]: −10.2 ± 9.3 % change
- Nighttime DBP response (% change) [2]: −12.4 ± 9.4 % change
- Nighttime SBP response (% change) [2]: −9.3 ± 10.9 % change
- change in nighttime blood pressure (Ser49 homozygotes compared to carriers of the Gly49 allele): significantly greater
- 24 hr DBP response (% change) [3]: −3.9 ± 8.9 % change
- 24 hr SBP response (% change) [3]: −0.6 ± 12.2 % change
- Daytime DBP response (% change) [3]: −4.0 ± 10.4 % change
- Daytime SBP response (% change) [3]: −1.0 ± 12.8 % change
- Nighttime DBP response (% change) [3]: −3.1 ± 9.0 % change
- Nighttime SBP response (% change) [3]: +0.6 ± 11.8 % change
- 24 hr DBP response (% change) [4]: −4.6 ± 8.3 % change
- Daytime DBP response (% change) [4]: −3.5 ± 8.7 % change
- Daytime SBP response (% change) [4]: −2.8 ± 12.5 % change
- Nighttime DBP response (% change) [4]: −7.3 ± 9.1 % change
- Nighttime SBP response (% change) [4]: −3.9 ± 13.9 % change
- 24 hr SBP response (% change) (codon 389 Gly carriers, metoprolol titrated, ambulatory BP vs baseline): −3.3 ± 12.6 % change
- heart rate response to beta-blockade (treadmill exercise heart rate, relation to β1AR genotype): not associated with genotype
